In US9150608B2, “Neuro-protective compounds and their use” (Biotechnology Research Corp. Ltd., priority 2010, dated 2015):

Legend:
[1] = tested on: cyclic AMP response (CRE) element; experiment: CRE-dependent transcription assay (luciferase); assay type: cell-based, rat; conditions: hippocampal neurons 12DIV, 50 μM, 6 hours
Protocol: FIG. 41. GAG compounds enhance CRE-dependent transcription activity. GAG-C14 (a), GAG-C53 (b), GAG-C63 (c), GAG-C69 (d), GAG-C84 (e), GAG-C111 (f), GAG-C122 (g), GAG-C123 (h), and GAG-C129 (i) induce CRE-dependent transcriptional activity in cultured hippocampal neurons. On the day of cell seeding, hippocampal neurons were transfected with a firefly luciferase reporter plasmid containing cyclic AMP response (CRE)-element. The cells at 12 DIV were then treated with 50 μM of AG compounds for 6 hours. Data are mean±SEM (n=3-4), *=P<0.05, **=P<0.01, and ***=P<0.005 versus vehicle-treated cells (0 μM), student's t test.
Cultured hippocampal neurons were transfected with a firefly luciferase reporter plasmid containing a cyclic AMP response (CRE) element. At 12DIV, the cells were treated with 50 μM of compound for 6 hours, then CRE-dependent transcription activity was assayed by measuring luciferase levels.
Freshly isolated embryonic cortical neurons were transfected with a luciferase reporter gene (Cre-Luc) linked to CREB activation following the ACM lipofectamine method using Lipofectamine 2000, a cationic liposome based reagent (Invitrogen). […] Transfection was performed using 1 μL Lipofectamine 2000 and 0.4 μg DNA per well. Neurons were then treated with test samples for time periods of 6 hours. After treatment, the cells were washed with ice-cold DPBS and 100 μL of 1× luciferase lysis buffer (Promega) was added. The plates were placed in −20° C. to freeze the cells, after which they were thawed to facilitate lysis. The lysates were transferred onto white bottom plates and assayed for renilla luciferase using the luciferase assay kit (Promega). Increased CREB activation in the neurons leads to an enhanced luciferase production and this was quantified using a Promega GloMax™ 96 microplate luminometer. […] BDNF and rolipram were used as positive controls.

[2] = tested on: Aβ25-35-treated primary cortical neurons; experiment: Cortical neuron survival assay with amyloid-beta peptide insult (MTT); assay type: cell-based, rat; conditions: for cell survival of cortical neurons treated with Aβ25-35 (MTT): 50 μM, except GAG-C69 at 30 μM, Aβ25-35 10 μM (FIG. 19)
Protocol: FIG. 4. […] After overnight incubation, the MTT assay was performed. Cell survival was calculated as a percentage compared to vehicle control (“CTL no Abeta”).
Exogenous addition of amyloid beta peptide (Aβ) initiates cell death of neuronal cultures via apoptosis.
The cells were then incubated with test samples and amyloid-beta peptide fragment 25-35 (Aβ, 10 μM, Sigma) in growth medium. A tetrazole, 3-(4,5-Dimethylthiazol-2-yl)-2,5-diphenyltetrazolium bromide (MTT, 5 mg/ml) was added to the medium at a ratio of 1:10 after 24-hr incubation. MTT is reduced by living cells into purple formazan and further solubilized in 20% SDS solution; therefore, the colored solution was measured by spectrophotometer and cell viability was quantified.

cleaved-caspase-3 = experiment: Caspase-3 expression in cortical neurons in the presence of amyloid-beta peptide (Western blot); assay type: cell-based, rat; conditions: 10-50 μg/mL in the presence of Aβ25-35 (10 μM), overnight
Protocol: FIG. 5. Adelostemma gracillimum refined fraction inhibits caspase-3 production in primary cortical neurons induced by Aβ. Primary cortical neuron cultures (7DIV) were treated with various concentrations of AG-0 (10-50 μg/mL) in the presence of Aβ25-35 (10 μM). Proteins were extracted after overnight incubation and Western blot analysis was performed. Blots were probed with antibodies against caspase-3 and ERK protein. Staurosporine (STS, 10 μM) was used as a positive control, while DMSO served as the vehicle control.
The cells were then incubated with test samples and amyloid-beta peptide fragment 25-35 (Aβ, 10 uM, Sigma) in growth medium.

[3] = tested on: NMDA receptor-induced excitotoxicity in primary cortical neuronal cells; experiment: NMDA survival assay (LDH release)
Protocol: Embryonic rat cortical neurons (11 DIV) were pre-treated with various concentrations of AG—0 (0.1 -30 μg/mL) and then co-incubated with NMDA (20 μM). After 20 min, the medium was replaced with fresh medium, and after overnight incubation lactate dehydrogenase (LDH) released into the medium was measured. Cell death was calculated as a percentage compared to solvent control (“CTL without NMDA”). Assays were conducted in duplicate and repeated at least twice. *=P<0.05.
Cortical neurons were plated on 48-well plate (Nunc) at a density of 1.1×10^5 cells per well and cultured for 11-12 days (11-12 DIV). Neurons were pre-treated with the test compounds for 2 hours prior to N-Methyl-D-Aspartate (NMDA, Sigma) or glutamate (MSG, Sigma) treatment. Briefly, the neurons were rinsed with Locke's solution (5 mM potassium chloride, 128 mM sodium chloride, 2.7 mM calcium chloride, 1 mM di-sodium hydrogen orthophosphate, 5 mM HEPES and 10 mM glucose in Milli-Q water) without Mg^2+, followed by incubation in Locke's solution with addition of glycine (0.1 μM) for 15 minutes. After the incubation, the neurons were co-treated with the test compound (dissolved in Locke's plus glycine solution) and NMDA (20 μM) or glutamate for 20 min. Neurons were then rinsed with Locke's solution containing Mg^2+ and replaced with fresh growth medium. Cell death was assayed and quantified using the lactate dehydrogenase release assay (Cytotoxicity Detection Kit, Roche). Data was compared to a DMSO vehicle control and represented in mean±SEM. The student t-test was used for statistical analysis.

[4] = tested on: phosphorylated ERK, CREB, Akt, P38, MEK in cortical neurons; experiment: Western blot detection of signaling proteins in cortical neurons; assay type: cell-based, rat; conditions: cortical neurons 7DIV, 0.1-10 μM, 15 min (FIGS. 16, 18, 20)
NMDA receptor = experiment: Whole-cell patch clamp; assay type: cell-based, rat; conditions: hippocampal neurons, −70 mV
Protocol: FIG. 31. GAG-C73 inhibits NMDA-induced current in hippocampal neurons. The effects of GAG-C73 on NMDA-activated currents in rat hippocampal neurons (11DIV) were examined using whole-cell patch clamp studies. Addition of NMDA induced depolarization and initiated an inward current in pyramidal cells. A. Examples of NMDA-activated currents before, during, and after application of GAG-C73 (30 μM) are shown. Horizontal bars denote GAG-C73 application. B-C. […] DMSO was used as a solvent control. The concentration of glycine was 0.1 μM, and membrane potential was held at −70 mV. n=10; three independent experiments were performed. *=P<0.05.
The NMDA receptor is a gated ion channel, which allows inflow of current during a nerve impulse. Antagonists to the receptor would prevent the inflow of current.
Hippocampal neurons were plated onto PDL-coated 35 mm dishes (NUNC) at a density of 3×10^5 cells per plate. Half of the medium was changed with NB, B27 and […] L-glutamine every 2 to 3 days. On day 12 in vitro (12DIV), whole-cell patch clamp study was performed. […] Holding potential of patched cells was kept at −70 mV and currents were recorded using Axopatch-200B amplifier (Axon Instruments, USA). […] Data was analyzed by pClamp9 software and percentage of inhibition on NMDA-induced current was' represented in comparison to a DMSO solvent control.

[5] = tested on: glutamate-induced excitotoxicity in cortical neurons; experiment: Glutamate survival assay (LDH release); assay type: cell-based, rat; conditions: 30 μM; glutamate 10-200 μM, all concentrations examined
Protocol: FIG. 34. GAG-C73 decreases primary neuron cell death induced by high doses of glutamate. Cortical neurons were incubated with GAG-C73 (30 μM) or DMSO control for 2 hrs, followed by co-treatment with differing concentrations of glutamate (10-200 μM) for 20 min. LDH release into the medium was then measured.
Glutamate is the physiological neurotransmitter that activates NMDA receptors. However, excess amounts of glutamate can result in excitotoxicity and potential cell death. Survival assays were conducted to determine the ability of GAG-C73 to effectively protect neuronal cells from glutamate-induced excitotoxicity.

Row | SMILES | CRE-dependent transcription activity (luciferase) [1] | cell survival of cortical neurons treated with Aβ25-35 (MTT) [2] | survival of neurons against Aβ insult (MTT) ([2]; various concentrations, Aβ25-35 10 μM) | expression level of cleaved-caspase-3 (17 kDa, active form) (cleaved-caspase-3) | cell death compared to the DMSO control (LDH) ([3]; 30 μM, NMDA 5-100 μM, at toxic dosages of NMDA) | neuronal survival following NMDA treatment (LDH) ([3]; 30-50 μM pre-treated 2 hours, NMDA 20 min (FIG. 17)) | cell death compared to the DMSO control (LDH) ([3]; varying concentrations pre-treated 2 hrs, NMDA 20 μM) | ERK phosphorylation [4] | NMDA-induced current (peak and plateau) (NMDA receptor; 30 μM co-treatment with NMDA) | NMDA-induced current with increasing doses (NMDA receptor) | cell death compared to the DMSO control (LDH) [5]
1 | C/C=C/c1ccc2c(c1)OC(c1ccc(O)c(OC)c1)C(C)O2 (stereo not drawn) [GAG-C69, 3-methoxyl-4-hydroxyl-(7′-E)-5′7-epoxy-8,4′-oxyneolignane-7′ en] | enhances CRE-dependent transcription | promoted cell survival | increases the survival of neurons against Aβ insult comparable to control levels | significantly decreased to levels comparable to that without Aβ | – | – | – | – | – | – | –
2 | C=C(C)[C@@H]1CCC2(C(=O)O)CC[C@]3(C)C(=CCC4[C@@]5(C)CCC(O)[C@@](C)(CO)C5CC[C@]43C)C12 (stereo partly drawn) [GAG-C73, 3,23-dihydroxyl-12(13)-en-Lup-20(29)-en-28-oic acid] | – | promoted cell survival | – | – | significant reduction in cell death | promoted neuronal survival | significant dose-dependent reduction in cell death | induced ERK phosphorylation | reduced the current induced by NMDA, for both peak and plateau currents | further decreased the NMDA-induced current | significant reduction in cell death
